Data reported in patent US10383848B2, “Indole-based therapeutics” (Creighton University, priority 2016, dated 2019).
≈ marks a conversion by molar mass, not a printed value. Like-named read-outs stand apart in the source and are kept apart here.

Experiments:
M. smegmatis mc^2155 = experiment: MIC, resazurin microtiter assay; assay type: cell-based; details: Mycolicibacterium smegmatis, MC^2155, 7H9-ADC-0.05% Tween 80; read-out: MIC M. smeg. mc^2155
M. abscessus ATCC 19977 = experiment: MIC, resazurin microtiter assay; assay type: cell-based; details: Mycobacteroides abscessus, ATCC19977; Mueller Hinton II; read-out: MIC M. abscessus ATCC 19977
[1] = system: M. massiliense strain 1513; experiment: Metabolic labeling and mycolic acid analysis; details: 4x and 10x MIC, 16 hr, [1,2-14C]acetate labeling, TLC
Description: Cultures of M. massiliense 1513 grown to mid log-phase in Mueller-Hinton II broth were incubated with different concentrations of inhibitors for 16 hr at 37° C. with shaking. 0.5 μCi/mL [1,2-^14C]acetic acid (specific activity, 52 Ci/mol, PerkinElmer Inc.) was added at the same time as the inhibitors. Total lipids and cell wall-bound mycolic acid methyl esters were prepared from treated and untreated cells and analyzed by TLC as described in Grzegorzewicz et al, Nature Chemical Biology, 2012, 8:334+341.

M. chelonae ATCC 35752 = experiment: MIC, resazurin microtiter assay; assay type: cell-based; details: for MIC: Mycobacteroides chelonae, ATCC35752, Mueller Hinton II, read-out: MIC M. chelonae ATCC 35752; for Selectivity index (TD50/MIC): TD50 in THP-1 cells
M. abscessus 103 = experiment: MIC/MBC by microbroth dilution (MH or 7H9 broth); assay type: cell-based, M. abscessus subsp. bolletii; details: Mycobacteroides abscessus, 103
M. intracellulare 1956 = experiment: MIC, resazurin microtiter assay; assay type: cell-based; details: Mueller Hinton II; read-out: MIC M. avium Intracellulare 1956
mycobacteria = experiment: organism not typed; assay type: cell-based; details: lowest concentration reducing CFU by 90% relative to the inoculum; strain not stated; read-out: MBC90
M. avium 104 = experiment: MIC, resazurin microtiter assay; assay type: cell-based; details: Mycobacterium avium, 104; Mueller Hinton II; read-out: MIC M. avium 104
P. aeruginosa PAO-1 = experiment: MIC, resazurin microtiter assay; assay type: cell-based, Pseudomonas aeruginosa; details: Mueller Hinton II; for MIC: Pseudomonas aeruginosa, PAO1, read-out: MIC P. aeruginosa PAO-1
[2] = system: M. tuberculosis H37Rv mc^26206; experiment: microbe, parasite or virus in culture; assay type: cell-based; details: for Selectivity Index (TD50/MIC) M. tb H37Rv: TD50 in THP-1 cells
M. abscessus DCI #21 = experiment: MIC, resazurin microtiter assay; assay type: cell-based; details: for MIC: Mycobacteroides abscessus, Mueller Hinton II, read-out: MIC M. abscessus DCI #21; for Selectivity Index (TD50/MIC) M. abscessus DCI #21: TD50 in THP-1 cells
M. abscessus 1513 = experiment: MIC/MBC by microbroth dilution (MH or 7H9 broth); assay type: cell-based, M. abscessus subsp. abscessus; details: Mycobacteroides abscessus, 1513
S. aureus ATCC25923 = experiment: MIC, resazurin microtiter assay; assay type: cell-based; details: Staphylococcus aureus, ATCC25923; Mueller Hinton II; read-out: MIC S. aureus ATCC25923
M. massiliense CRM 0019 = experiment: MIC, resazurin microtiter assay; assay type: cell-based; details: for MIC: Mycobacteroides abscessus, CRM0019, Mueller Hinton II, read-out: MIC M. massiliense CRM 0019; for Selectivity Index (TD50/MIC) M. Massiliense CRM0019: TD50 in THP-1 cells
M. bolletii ATCC 14472 = experiment: MIC, resazurin microtiter assay; assay type: cell-based; details: for MIC: Mycobacteroides abscessus, ATCC14472, Mueller Hinton II, read-out: MIC M. bolletii ATCC 14472; for Selectivity Index (TD50/MIC) M. bolletii: TD50 in THP-1 cells
THP-1 cells = experiment: Cytotoxicity assay, THP-1 cell viability (CellTiter-Glo); assay type: cell-based, human; details: 3 days
Description: The cytotoxicity of compounds was determined by measuring THP-1 cell viability after 3 days in the presence of test compounds. Compounds were prepared as 10-point serial dilutions in DMSO. The highest concentration of compound tested was 50 μM where compounds were soluble in DMSO at 10 mM. THP-1 cells were cultured in complete RPMI and differentiated into macrophage-like cells using 80 nM PMA overnight at 37° C., 5% CO2. Cells were inoculated into assay plates and cultured for 24 h before compound dilutions were added to a final DMSO concentration of 0.5%. Each run included staurosporine as a control. Assay plates were incubated for 3 days at 37° C., 5% CO2, growth was measured using the CellTiter-Glo® Luminescent Cell Viability Assay (Promega) which uses ATP as an indicator of cell viability. Relative luminescent units (RLU) were measured using a Biotek Synergy 4 plate reader. The dose response curve was fitted using the Levenberg-Marquardt algorithm.

[3] = system: M. massiliense CIP 108297; experiment: MIC, resazurin microtiter assay; assay type: cell-based; details: Mycobacteroides abscessus, CIP108297, Mueller Hinton II; read-out: MIC M. massiliense CIP 108297
M. xenopi WT = experiment: MIC, resazurin microtiter assay; assay type: cell-based; details: Mycobacterium xenopi, Mueller Hinton II; read-out: MIC M. xenopi WT
[4] = read-out: MIC M. abscessus 103, 7H9 Broth
[5] = read-out: MIC M. abscessus 103, MH Broth
[6] = read-out: MIC M. abscessus 1513, 7H9 Broth
[7] = read-out: MIC M. abscessus 1513, MH Broth

SMILES	MIC (M. smegmatis mc^2155) [µg/mL]	MIC (M. abscessus ATCC 19977) [µg/mL]	TMM build-up and mycolic acid transfer onto arabinogalactan and TDM [1]	MIC (M. chelonae ATCC 35752) [µg/mL]	Selectivity index (TD50/MIC) (M. chelonae ATCC 35752)	MIC (M. abscessus 103; [4]) [µg/mL]	MIC (M. abscessus 103; [5]) [µg/mL]	MIC (M. intracellulare 1956) [µg/mL]	MIC (M. avium 104) [µg/mL]	MIC P. aeruginosa PAO-1 (P. aeruginosa PAO-1)	MIC (P. aeruginosa PAO-1) [µg/mL]	Selectivity Index (TD50/MIC) M. tb H37Rv [2]	MIC (M. abscessus DCI #21) [µg/mL]	Selectivity Index (TD50/MIC) M. abscessus DCI #21 (M. abscessus DCI #21)	MIC (M. abscessus 1513; [6]) [µg/mL]	MIC (M. abscessus 1513; [7]) [µg/mL]	MIC (S. aureus ATCC25923) [µg/mL]	MIC (M. massiliense CRM 0019) [µg/mL]	Selectivity Index (TD50/MIC) M. Massiliense CRM0019 (M. massiliense CRM 0019)	MIC (M. bolletii ATCC 14472) [µg/mL]	further results
C[C@@H]1[C@H]2C[C@@H](C[C@H]1NC(=O)c1cc3ccccc3[nH]1)C2(C)C [Compound 16, N-((1R,2R,3R,5S)-2,6,6-trimethylbicyclo[3.1.1]heptan-3-yl)-1H-indole-2-carboxamide]	0.78 (≈ 2.63 µM)	0.12 (≈ 0.405 µM)	concentration-dependent build-up of TMM	< 0.06	>188	> 64	16 (≈ 54 µM)	8 (≈ 27 µM)	8 (≈ 27 µM)	inactive	> 160	226	0.5 (≈ 1.69 µM)	22.6	> 64	> 64	40 (≈ 135 µM)	0.06 (≈ 0.202 µM)	188	0.12 (≈ 0.405 µM)	MBC (mycobacteria): 0.06 µg/mL (≈ 0.202 µM); MIC ([2]; Mycobacterium tuberculosis, H37RV, read-out: MIC M. tb H37 Rv (mc2-6206)): 0.05 µg/mL (≈ 0.169 µM); Selectivity Index (TD50/MIC) M. bolletii (M. bolletii ATCC 14472): 92; TD50 (THP-1 cells): 11.3 µg/mL; MIC [3]: 0.06 µg/mL (≈ 0.202 µM); MIC (M. xenopi WT): 0.5 to 1 µg/mL (≈ 1.69 to 3.37 µM)
Cc1cc(C)c2cc(C(=O)N[C@@H]3C[C@@H]4C[C@H]([C@H]3C)C4(C)C)[nH]c2c1 [Compound 31, N-((1R,2R,3R,5S)-2,6,6-trimethylbicyclo[3.1.1]heptan-3-yl)-4,6-dimethyl-1H-indole-2-carboxamide]	1.25 to 2.5 (≈ 3.85 to 7.7 µM)	0.125 (≈ 0.385 µM)	concentration-dependent build-up of TMM	0.125 (≈ 0.385 µM)	>130	> 64	16 (≈ 49.3 µM)	2 (≈ 6.16 µM)	2 (≈ 6.16 µM)	inactive	> 160	>830	0.125 (≈ 0.385 µM)	>130	> 64	> 64	> 160	0.125 (≈ 0.385 µM)	>130	0.125 (≈ 0.385 µM)	Selectivity Index (TD50/MIC) M. bolletii (M. bolletii ATCC 14472): >130; TD50 (THP-1 cells): >16.2 µg/mL; MIC [3]: 0.125 µg/mL (≈ 0.385 µM); MIC (M. xenopi WT): 0.25 to 1 µg/mL (≈ 0.77 to 3.08 µM)
